Source: patent publication US20240228482A1, “COMPOUNDS, COMPOSITIONS AND METHODS OF TREATING CANCER” (HOTSPOT THERAPEUTICS, INC., priority 2021, published 2024)
pIC50: −log10 of the molar value.

What follows are compounds tested against T1, CBL-B (Homo sapiens, UniProt Q13191) (assay: CBL-B TR-FRET IC50 screening (E1/E2 ubiquitination, Biotin-Ubiquitin, Anti GST-Tb donor / Streptavidin-d2 acceptor)). Conditions: CBL-B 10 nM final; 11-point titration from 100 uM; binned A-F; read-out: CBL-B TR-FRET activity IC50.
T1 construct: GST
Format: biochemical

T1 sequence (Q13191 whole entry): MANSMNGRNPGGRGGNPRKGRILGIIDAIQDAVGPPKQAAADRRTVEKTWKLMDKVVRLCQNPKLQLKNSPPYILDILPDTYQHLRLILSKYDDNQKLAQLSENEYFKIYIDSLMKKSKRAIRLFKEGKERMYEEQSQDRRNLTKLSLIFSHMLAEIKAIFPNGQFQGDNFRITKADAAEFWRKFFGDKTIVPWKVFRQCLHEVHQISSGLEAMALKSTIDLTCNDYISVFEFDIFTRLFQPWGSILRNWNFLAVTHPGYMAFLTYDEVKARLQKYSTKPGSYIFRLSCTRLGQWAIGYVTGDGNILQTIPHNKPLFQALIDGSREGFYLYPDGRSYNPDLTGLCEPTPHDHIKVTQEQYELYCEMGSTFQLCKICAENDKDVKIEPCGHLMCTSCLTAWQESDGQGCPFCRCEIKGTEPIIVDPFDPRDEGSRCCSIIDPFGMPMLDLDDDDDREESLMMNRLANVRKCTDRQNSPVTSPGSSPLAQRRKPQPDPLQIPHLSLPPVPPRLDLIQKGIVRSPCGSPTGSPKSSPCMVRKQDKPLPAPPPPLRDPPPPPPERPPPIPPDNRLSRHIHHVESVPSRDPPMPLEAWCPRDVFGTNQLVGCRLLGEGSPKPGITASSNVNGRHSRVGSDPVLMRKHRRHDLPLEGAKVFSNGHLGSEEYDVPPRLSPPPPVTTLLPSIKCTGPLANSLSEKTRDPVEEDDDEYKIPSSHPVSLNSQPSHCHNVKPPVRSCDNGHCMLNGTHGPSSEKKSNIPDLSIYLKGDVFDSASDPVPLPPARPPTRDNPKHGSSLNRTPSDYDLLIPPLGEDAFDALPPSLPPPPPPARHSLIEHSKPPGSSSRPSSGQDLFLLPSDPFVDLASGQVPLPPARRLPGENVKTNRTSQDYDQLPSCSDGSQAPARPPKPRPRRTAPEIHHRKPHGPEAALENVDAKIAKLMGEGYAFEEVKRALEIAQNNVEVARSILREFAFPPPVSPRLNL

Compared with CN1CCC(c2cc(C(F)(F)F)c3cn(-c4cccc(C5(Cc6nncn6C)COC5)c4)c(=O)n3c2)C1 (centres unmarked) [Compound 83], Cn1cnnc1CC1(c2cccc(-n3cc4c(C(F)(F)F)cc(CN5CC[C@H](O)C5)cn4c3=O)c2)COC1 [Compound 129] is higher in pIC50: under 5.00 for the first, 6.52 to 7.00 for the second. The second is the more potent here.

First: C[C@@H](Cc1nncn1C)c1cccc(-n2cc3c(C(F)(F)F)cccn3c2=O)c1 [Compound 3]
Second: C[C@H](c1cc(C(F)(F)F)c2cn(-c3cccc(C4(Cc5nncn5C)COC4)c3)c(=O)n2c1)N1CC2CC2C1 (some centres unmarked) [Compound 37]
The pIC50 of the first is lower: 5.00 to 5.52 for the first, over 7.00 for the second.

Cn1cnnc1CC1(c2cccc(-n3cc4c(C(F)(F)F)cc(CN5CCC[C@H](F)C5)cn4c3=O)c2)COC1 [Compound 22] and CO[C@@H]1CCCN(Cc2cc(C(F)(F)F)c3cn(-c4cccc(C5(Cc6nncn6C)COC5)c4)c(=O)n3c2)C1 [Compound 124] cannot be ordered by pIC50: over 7.00 for the first, over 7.00 for the second.

First: O=c1n(-c2cccc([C@H](c3nncs3)C3CCC3)c2)cc2c(C(F)(F)F)cc(CN3CCC(F)CC3)cn12 [Compound 333]
Second: Cn1cnnc1[C@@H](c1cccc(-n2cc3c(C(F)(F)F)cc(CN4CC[C@H](C#N)C4)cn3c2=O)c1)C1CCC1 (single isomer, unassigned) [Compound 174]
The pIC50 of the first is lower: 6.52 to 7.00 for the first, over 7.00 for the second. The second is the more potent here.

Cn1cnnc1CC1(c2cccc(-n3cc4c(C(F)(F)F)cc(CN5CCCC(O)CC5)cn4c3=O)c2)COC1 (single isomer, unassigned) [Compound 176] and C[C@H]1CCCN(Cc2cc(C(F)(F)F)c3cn(-c4cccc([C@]5(c6nncn6C)C[C@@H](C)C5)c4)c(=O)n3c2)C1 (single isomer, unassigned) [Compound 60] cannot be ordered by pIC50: over 7.00 for the first, over 7.00 for the second.

Compared with Cn1cnnc1C(F)(F)[C@@](C)(F)c1cccc(-n2cc3c(C(F)(F)F)cc(CN4CCC(F)(F)C4)cn3c2=O)c1 [Compound 36], Cn1cnnc1C1(c2cccc(-n3cc4c(C(F)(F)F)cc(Br)cn4c3=O)c2)CC2(CC2)C1 [Compound 103] is higher in pIC50: 6.00 to 6.52 for the first, 6.52 to 7.00 for the second. The second is the more potent here.

C[C@@H]1CN([C@H](C)c2cc(C(F)(F)F)c3cn(-c4cccc([C@H](c5nncn5C)C5CCC5)c4)c(=O)n3c2)CCO1 (single isomer, unassigned) [Compound 233] was tested, and the pIC50 was over 7.00.

Same assay, conditions: second part of Table 2 (head 'Patent Cmpd No / Updated Activity'); same CBL-B TR-FRET IC50 bins A-F; read-out: Updated Activity

First: Cn1cnnc1[C@H](c1cc(F)cc(-n2cc3c(C(F)(F)F)cc(CN4CCC5(CC5)C4)cn3c2=O)c1)C1CCC1 (single isomer, unassigned) [Compound 514]
Second: Cn1cnnc1[C@@H](c1cc(F)cc(-n2cc3c(C(F)(F)F)cc(CN4CCC5(CC5)C4)cn3c2=O)c1)C1CCC1 (single isomer, unassigned) [Compound 510]
The pIC50 of the first is higher: over 7.00 for the first, 6.00 to 6.52 for the second. The first is the more potent here.

Cn1cnnc1[C@@H](c1cccc(-n2cc3c(C(F)(F)F)cc(CN4CCC5(CC4)CC5)cn3c2=O)c1)C1CCC1 [Compound 503] and CN1CCN(Cc2cc(C(F)(F)F)c3cn(-c4cccc([C@H](c5nncn5C)C5CCC5)c4)c(=O)n3c2)C1=O [Compound 483] cannot be ordered by pIC50: over 7.00 for the first, over 7.00 for the second.

Compared with CNC(=O)Cc1cc([C@H](c2nncn2C)C2CCC2)cc(-n2cc3c(C(F)(F)F)cccn3c2=O)c1 (single isomer, unassigned) [Compound 538], COC[C@H]1CCN1Cc1cc(C(F)(F)F)c2cn(-c3cccc([C@H](c4nncn4C)C4CCC4)c3)c(=O)n2c1 [Compound 548] is higher in pIC50: under 5.00 for the first, over 7.00 for the second.

First: COCCn1ccnc1-c1cc(C(F)(F)F)c2cn(-c3cccc([C@H](c4nncn4C)C4CCC4)c3)c(=O)n2c1 [Compound 502]
Second: COC1CN([C@H](c2cccc(-n3cc4c(C(F)(F)F)cc(CN5CCC[C@H](C)C5)cn4c3=O)c2)c2nncn2C)C1 (single isomer, unassigned) [Compound 387]
The pIC50 of the first is higher: over 7.00 for the first, under 5.00 for the second.

Compared with Cn1cnnc1[C@H](c1cc(F)cc(-n2cc3c(C(F)(F)F)cc(CN4CCC(C)(F)CC4)cn3c2=O)c1)C1CCC1 (single isomer, unassigned) [Compound 540], C[C@H]1CCCN(Cc2cc(C(F)(F)F)c3cn(-c4cccc([C@@H](c5nncn5C)N5CC(O)C5)c4)c(=O)n3c2)C1 (single isomer, unassigned) [Compound 407] is lower in pIC50: 6.00 to 6.52 for the first, under 5.00 for the second.
